Results from patent US20090155209A1, “NOVEL MACROCYCLIC INHIBITORS OF HEPATITIS C VIRUS REPLICATION” (priority 2007, published 2009).
Several values for one entry are separate records, joined by “and”; a condition that tells them apart may be missing. Equal entries are not always repeated. Where two headings read alike, the source gives them in different places.

Assay: Single ascending dose study, fasted and fed: safety and non-compartmental plasma PK
Type: in vivo, healthy volunteers (human)
Settings: for median percentage change in AUC0-inf between the fasted and fed conditions: 10 subjects
Description: A single ascending dose (SAD) study of the compound 100 was conducted in healthy volunteers. The compound 100 was administered as monotherapy both with and without food. The safety and pharmacokinetic profile of the single dose of the compound 100 was assessed.
Interim, blinded data were used for Pharmacokinetic (PK) study relating to food effects. With the exception of the 400 mg cohort, eight subjects were studied at each dose (single doses of 100, 200, or 800 mg of the sodium salt of the compound 100, which may be referred to herein as ITMN-191, administered in the fasting state). In the 400 mg cohort, ten subjects received single 400 mg doses of ITMN-191 under both fasted and fed conditions with a 5-day washout period between dosing. In the 100 mg cohort, subjects were sampled within 1 hour before dosing and at 0.5, 1, 1.5, 2, 2.5, 3, 4, 6, 8, 12, 18, 24, 32 and 48 hours after dosing. For subsequent cohorts, subjects were sampled within 1 hour before dosing and at 0.25, 0.5, 1, 1.5, 2, 2.5, 3, 4, 6, 8, 12, 18, 24, and 32 hours after dosing. Nominal (not actual) sampling times were used for the analysis. PK samples were analyzed using liquid chromatography-tandem mass spectrometry (LC/MS/MS with API 4000 mass spectrometer) following solid-phase extraction. The upper and lower limits of quantitation (ULOQ and LLOQ) are 100 and 0.01 ng/mL, respectively.
Pharmacokinetic parameter estimates were calculated using non-compartmental methods (implemented using Microsoft Excel®). Half-lives were determined by visual inspection of the log concentration-time plots to choose the terminal phase (minimum of three detectable observations). Using linear regression of the chosen terminal phase observations, elimination rate constants were calculated as the negative slope of the regression line and half-life as the natural log of 2 divided by the elimination rate constant.
Ten subjects received single 1600 mg doses of ITMN-191 under both fasted and fed conditions with a 5-day washout period between dosing. For each condition, subjects were sampled within 1 hour before dosing and at 0.25, 0.5, 1, 1.5, 2, 2.5, 3, 4, 6, 8, 12, 18, 24, and 32 hours after dosing. Pharmacokinetic parameter estimates were calculated using non-compartmental methods. Half-life (t1/2) was determined by visual inspection of the log concentration-time plots to choose the terminal phase (minimum of three detectable observations). Using linear regression of the chosen terminal phase observations, elimination rate constants were calculated as the negative slope and half-life as the natural log of 2 divided by the elimination rate constant.

[1] = individual subjects, single 1600 mg dose, Fasted
[2] = individual subjects, single 1600 mg dose, Fed

CC(C)(C)OC(=O)N[C@H]1CCCCC/C=C\[C@@H]2C[C@@]2(C(=O)NS(=O)(=O)C2CC2)NC(=O)[C@@H]2C[C@@H](OC(=O)N3Cc4cccc(F)c4C3)CN2C1=O [ITMN-191]
AUC0-inf (human, plasma, oral, 1600 mg, Geometric Mean of 10 subjects, single 1600 mg dose, Fed, read-out: AUC0-inf): 1010 ng·h/mL | Cmax (human, plasma, oral, 1600 mg, Geometric Mean of 10 subjects, single 1600 mg dose, Fed, read-out: Cmax): 422 ng/mL | half-life (human, plasma, oral, 1600 mg, Geometric Mean of 10 subjects, single 1600 mg dose, Fed, read-out: t½ (converted)): 2.5 h | AUC0-inf (human, plasma, oral, 1600 mg, Harmonic Mean of 10 subjects, single 1600 mg dose, Fasted, read-out: AUC0-inf): 639 ng·h/mL | Cmax (human, plasma, oral, 1600 mg, Harmonic Mean of 10 subjects, single 1600 mg dose, Fasted, read-out: Cmax): 453 ng/mL | half-life (human, plasma, oral, 1600 mg, Harmonic Mean of 10 subjects, single 1600 mg dose, Fasted, read-out: t½ (converted)): 2.29 h | AUC0-inf (human, plasma, oral, 1600 mg, Harmonic Mean of 10 subjects, single 1600 mg dose, Fed, read-out: AUC0-inf): 949 ng·h/mL | Cmax (human, plasma, oral, 1600 mg, Harmonic Mean of 10 subjects, single 1600 mg dose, Fed, read-out: Cmax): 326 ng/mL | half-life (human, plasma, oral, 1600 mg, Harmonic Mean of 10 subjects, single 1600 mg dose, Fed, read-out: t½ (converted)): 2.43 h | AUC0-inf (human, plasma, oral, 1600 mg, Mean of 10 subjects, single 1600 mg dose, Fasted, read-out: AUC0-inf): 691 ng·h/mL | Cmax (human, plasma, oral, 1600 mg, Mean of 10 subjects, single 1600 mg dose, Fasted, read-out: Cmax): 622 ng/mL | half-life (human, plasma, oral, 1600 mg, Mean of 10 subjects, single 1600 mg dose, Fasted, read-out: t½ (converted)): 2.48 h | AUC0-inf (human, plasma, oral, 1600 mg, Mean of 10 subjects, single 1600 mg dose, Fed, read-out: AUC0-inf): 1070 ng·h/mL | Cmax (human, plasma, oral, 1600 mg, Mean of 10 subjects, single 1600 mg dose, Fed, read-out: Cmax): 528 ng/mL | half-life (human, plasma, oral, 1600 mg, Mean of 10 subjects, single 1600 mg dose, Fed, read-out: t½ (converted)): 2.56 h | AUC0-inf (human, plasma, oral, 1600 mg, Median of 10 subjects, single 1600 mg dose, Fasted, read-out: AUC0-inf): 737 ng·h/mL | Cmax (human, plasma, oral, 1600 mg, Median of 10 subjects, single 1600 mg dose, Fasted, read-out: Cmax): 685 ng/mL | Tmax (human, plasma, oral, 1600 mg, Median of 10 subjects, single 1600 mg dose, Fasted, read-out: Tmax): 0.5 h | half-life (human, plasma, oral, 1600 mg, Median of 10 subjects, single 1600 mg dose, Fasted, read-out: t½ (converted)): 2.21 h | AUC0-inf (human, plasma, oral, 1600 mg, Median of 10 subjects, single 1600 mg dose, Fed, read-out: AUC0-inf): 1120 ng·h/mL | Cmax (human, plasma, oral, 1600 mg, Median of 10 subjects, single 1600 mg dose, Fed, read-out: Cmax): 449 ng/mL | Tmax (human, plasma, oral, 1600 mg, Median of 10 subjects, single 1600 mg dose, Fed, read-out: Tmax): 1.75 h | half-life (human, plasma, oral, 1600 mg, Median of 10 subjects, single 1600 mg dose, Fed, read-out: t½ (converted)): 2.64 h | half-life (human, plasma, oral, 1600 mg, individual subjects, single 1600 mg dose, Fed, read-out: t½ (converted)): 3 h | half-life (human, plasma, oral, in most subjects, read-out: terminal half-life): 1 to 2 h | AUC0-inf [1]: 890 ng·h/mL and 360 ng·h/mL and 529 ng·h/mL and 507 ng·h/mL and 907 ng·h/mL and 809 ng·h/mL and 753 ng·h/mL and 652 ng·h/mL and 720 ng·h/mL and 779 ng·h/mL | Cmax [1]: 892 ng/mL and 225 ng/mL and 548 ng/mL and 214 ng/mL and 1000 ng/mL and 860 ng/mL and 305 ng/mL and 909 ng/mL and 822 ng/mL and 442 ng/mL | AUC0-inf [2]: 1895 ng·h/mL and 583 ng·h/mL and 939 ng·h/mL and 1116 ng·h/mL and 1225 ng·h/mL and 1209 ng·h/mL and 806 ng·h/mL and 1133 ng·h/mL and 1174 ng·h/mL | Cmax [2]: 1510 ng/mL and 381 ng/mL and 199 ng/mL and 100 ng/mL and 444 ng/mL and 592 ng/mL and 454 ng/mL and 346 ng/mL and 760 ng/mL and 493 ng/mL | Tmax [2]: 1.5 h and 4 h and 2 h | t½ [2]: 2.01 h and 2.65 h and 1.80 h and 3.35 h and 2.16 h and 2.63 h and 1.82 h and 2.70 h and 3.48 h | subjects with an increase in AUC0-inf under fed conditions (single 400 mg dose): 8 of 10 | median percentage change in AUC0-inf between the fasted and fed conditions (single 400 mg dose): 26% | subjects with an increase in AUC0-inf under fed conditions (single 1600 mg dose): 10 of 10 | median percentage change in AUC0-inf between the fasted and fed conditions (single 1600 mg dose): 54%
